Measurements reported in publication PMC4886168, “Effects of solid‐phase extraction of plasma in measuring gut metabolic hormones in fasted and fed blood of lean and diet‐induced obese rats” (Physiological Reports, 2016).
Values joined by “and” are separate entries in the source; they are usually repeats but may differ in a detail not shown here. Equal entries are not always repeated.

B1: Leptin (protein, UniProt P41160 22-167, looked up)
Leptin: VPIQKVQDDTKTLIKTIVTRINDISHTQSVSAKQRVTGLDFIPGLHPILSLSKMDQTLAVYQQVLTSLPSQNVLQIANDLENLRDLLHLLAFSKSCSLPQTSGLQKPESLDGVLEASLYSTEVVALSRLQGSLQDILQQLDVSPEC

Columns and labels:
[1] = Plasma peptide levels during IV infusion of anorexigenic doses in lean rats
Procedure: Leptin doses bracketed the minimal effective dose (1100 ng/kg/min) for reducing food intake in lean rats (Reidelberger et al. 2012). Approximately 45 min after infusion onset, and while the infusion continued, rats were anesthetized with isoflurane (3%), and blood samples (~3 mL) were obtained by cardiac puncture. Samples were immediately transferred to 4 mL EDTA tubes on ice containing 40 μL of a mixture of 0.9 mL DPP4 inhibitor, 0.1 mL Protease Inhibitor Cocktail, and 0.1 g AEBSF. Plasma was obtained by centrifugation within 30 min of sample collection and stored at −70°C until solid‐phase extraction of samples followed by the multiplex assay. Infusions were administered using a syringe infusion pump (Harvard Apparatus, South Natick, MA). At the end of the experiment, data from a rat were excluded if its jugular vein catheter was not patent. A catheter was deemed patent if the rat lost consciousness within 10 sec of a bolus injection of the short‐acting anesthetic brevital into the catheter.
Plasma samples were extracted using procedures similar to those described previously (Dai et al. 2008). Briefly, an OASIS HLB LP (60 mg) 96‐well extraction plate (Waters Corp., Milford, MA) was prepared by passing 1 mL acetonitrile twice through each well, followed by 3, 1 mL washes of 1% trifluoroacetic acid (TFA; 1:100 water [vol/vol]). Flows through the wells were facilitated using a Waters vacuum manifold (5 inch Hg). Plasma (1 mL) was then added to each well; 10 min later, flows were facilitated using vacuum. Wells were then washed three times with 1 mL 1% TFA (facilitated using vacuum). Extracts were eluted into individual tubes by adding 1 mL of 1% TFA, 60% acetonitrile in water (vol/vol) to each well; 10 min later, flows were facilitated using vacuum. Samples of each extract (0.9 mL) were frozen, and then lyophilized to dryness. At time of assay, dried extracts for each sample were dissolved with 0.45 mL of assay buffer, producing a twofold higher concentration for eluted plasma components.
The multiplex assay employed a BioTek ELx405 plate washer fitted with a magnetic holder, and a Luminex 200 analyzer. […] Initial assays compared peptide standards used in the multiplex assay with those used in the individual ELIAs: multiplex assay standards were included in the individual ELIAs, and standards from the ELIAs were included in the multiplex assay.
In experiments examining the effects of solid‐phase extraction of plasma samples on specific recoveries of the seven peptides added to lean and obese plasma, measured peptide concentrations in each plasma sample were plotted against expected concentrations (after subtracting plasma alone values), and linear regression analyses were performed. […] Planned comparisons of treatment means were evaluated by t‐tests or paired t‐tests. […]

[2] = rats, amylin 15 ng/kg/min IV; solid-phase extraction of plasma, amylin radioimmunoassay; ref Arnelo et al. 1998; cited from earlier work
Description: With respect to the pancreatic hormone amylin, we previously provided evidence that postprandial plasma levels of amylin are not quite sufficient to inhibit food intake in rats by an endocrine mechanism (Arnelo et al. 1998). […] Here, we provide evidence using solid‐phase extraction of plasma and the multiplex assay for active amylin that a large chow meal in ...

[3] = tested on: food intake in lean rats; conditions: cited from earlier work; for ED50 dose for reducing food intake: 3-h IV infusion, ref Reidelberger et al. 2001, Chelikani et al. 2005a,b

Molecule | predicted plasma active amylin level at minimal anorexigenic dose ([1]; rat, in vivo, iv) | plasma amylin produced by anorexigenic IV dose [2] | ED50 dose for reducing food intake ([3]; lean rats) | best-fit linear regression equation, Y plasma peptide concentration (pg/mL), X peptide dose (ng/kg/min) ([1]; lean rats, 45 min IV infusion, three dose levels incl. 0, extracted plasma, multiplex assay, multiplex standards as reference) | plasma level at ~ED50 dose relative to that produced by the large meal ([1]; lean rats, IV ~ED50 doses (56, 68, 39 ng/kg/min) vs postprandial level 30 min after meal onset, ELIA standards as reference) | predicted plasma active GLP-1 level at minimal anorexigenic dose ([1]; regression prediction for GLP-1 1.6 ng/kg/min IV, dose not administered here, [95% CI]) | effect on food intake ([3]; rats, IV infusion of GLP-1 at 33 ng/kg/min, ref Chelikani et al. 2005b) | minimal effective dose for reducing food intake ([3]; lean rats, IV infusion of leptin, ref Reidelberger et al. 2012)
CC(C)C[C@H](NC(=O)[C@H](CC(N)=O)NC(=O)[C@H](CC(N)=O)NC(=O)[C@H](CO)NC(=O)[C@H](CO)NC(=O)[C@H](CCCNC(=N)N)NC(=O)[C@@H](NC(=O)[C@H](CC(C)C)NC(=O)[C@H](Cc1ccccc1)NC(=O)[C@H](CC(N)=O)NC(=O)[C@H](C)NC(=O)[C@H](CC(C)C)NC(=O)[C@H](CCCNC(=N)N)NC(=O)[C@H](CCC(N)=O)NC(=O)[C@@H](NC(=O)[C@H](C)NC(=O)[C@@H]1CSSC[C@H](NC(=O)[C@@H](N)CCCCN)C(=O)N[C@@H](CC(N)=O)C(=O)N[C@@H]([C@@H](C)O)C(=O)N[C@@H](C)C(=O)N[C@@H]([C@@H](C)O)C(=O)N1)[C@@H](C)O)C(C)C)C(=O)NCC(=O)N1CCC[C@H]1C(=O)N[C@H](C(=O)N[C@@H](CC(C)C)C(=O)N1CCC[C@H]1C(=O)N1CCC[C@H]1C(=O)N[C@H](C(=O)N[C@@H](CC(N)=O)C(=O)N[C@H](C(=O)NCC(=O)N[C@@H](CO)C(=O)N[C@@H](CC(N)=O)C(=O)N[C@H](C(=O)N[C@@H](Cc1ccc(O)cc1)C(N)=O)[C@@H](C)O)C(C)C)[C@@H](C)O)C(C)C [Amylin] | 450 [−460, 1360] pg/mL | 140 pg/mL | 31 ng/kg/min |  |  |  |  | 
CC[C@H](C)[C@H](NC(=O)[C@H](Cc1ccccc1)NC(=O)[C@H](CCC(=O)O)NC(=O)[C@H](CCCCN)NC(=O)[C@H](C)NC(=O)[C@H](C)NC(=O)[C@H](CCC(N)=O)NC(=O)CNC(=O)[C@H](CCC(=O)O)NC(=O)[C@H](CC(C)C)NC(=O)[C@H](Cc1ccc(O)cc1)NC(=O)[C@H](CO)NC(=O)[C@H](CO)NC(=O)[C@@H](NC(=O)[C@H](CC(=O)O)NC(=O)[C@H](CO)NC(=O)[C@@H](NC(=O)[C@H](Cc1ccccc1)NC(=O)[C@@H](NC(=O)CNC(=O)[C@H](CCC(=O)O)NC(=O)[C@H](C)NC(=O)[C@@H](N)Cc1c[nH]cn1)[C@@H](C)O)[C@@H](C)O)C(C)C)C(=O)N[C@@H](C)C(=O)N[C@@H](Cc1c[nH]c2ccccc12)C(=O)N[C@@H](CC(C)C)C(=O)N[C@H](C(=O)N[C@@H](CCCCN)C(=O)NCC(=O)N[C@@H](CCCNC(=N)N)C(N)=O)C(C)C [GLP‐1, Glucagon‐like peptide‐1] |  |  | 76 ng/kg/min | 37 + 75X pg/mL | 30–60 fold and 30 fold | 53 [−400, 510] pg/mL | sufficient to decrease food intake | 
B1 |  |  |  |  |  |  |  | 1100 ng/kg/min
